From PubChem BioAssay AID330 (DTP/NCI, 2004)
“And” between values parts separate entries of the source, which are not always exact repeats. Equal values may be shown once. Inconclusive results and toxic doses are left out. Square brackets hold non-standard residues; d marks the D form. Peptide text beside a SMILES is read from it. ξ: configuration not given here. ξT = CC(O)C(N)C(=O)O

Tested on: P388 leukemia ip, CD2F1 mice, survival T/C
Assay: NCI In Vivo Anticancer Drug Screen. Data for tumor model P388 Leukemia (intraperitoneal) in CD2F1 (CDF1) mice
Conditions: endpoint: median survival time, higher = longer survival
Summary of the method: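 Mice carrying the transplanted tumor received test compound or vehicle. Survival was recorded in each group, and the value is the treated-group measurement divided by that of the vehicle-treated control group.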

[1] = dose: 15.0 mg/kg/injection, schedule: Q01DX005 (ip), vehicle: Klucel (hydroxypropylcellulose) (HPC)
[2] = dose: 30.0 mg/kg/injection, schedule: Q01DX005 (ip), vehicle: Klucel (hydroxypropylcellulose) (HPC)
[3] = dose: 60.0 mg/kg/injection, schedule: Q01DX005 (ip), vehicle: Klucel (hydroxypropylcellulose) (HPC)
[4] = dose: 50.0 mg/kg/injection, schedule: Q01DX005 (ip), vehicle: saline with Tween-80
[5] = dose: 100.0 mg/kg/injection, schedule: Q01DX005 (ip), vehicle: saline with Tween-80
[6] = dose: 50.0 mg/kg/injection, schedule: Q01DX009 (ip), vehicle: Klucel (hydroxypropylcellulose) (HPC)
[7] = dose: 50.0 mg/kg/injection, schedule: Q01DX005 (ip), vehicle: saline
[8] = dose: 100.0 mg/kg/injection, schedule: Q01DX005 (ip), vehicle: saline
[9] = dose: 200.0 mg/kg/injection, schedule: Q01DX005 (ip), vehicle: saline
[10] = dose: 60.0 mg/kg/injection, schedule: Q01DX005 (ip), vehicle: saline with Tween-80
[11] = dose: 120.0 mg/kg/injection, schedule: Q01DX005 (ip), vehicle: saline with Tween-80
[12] = dose: 50.0 mg/kg/injection, schedule: Q01DX009 (ip), vehicle: saline with Tween-80

SMILES: Cn1cc(N=P(c2ccccc2)(c2ccccc2)c2ccccc2)c(=O)n(C)c1=O
- T/C [1]: 114 % of control
- T/C [2]: 105 % of control
- T/C [3]: 107 % of control

SMILES: O=C1C(Cl)=C(n2c3ccccc3c3ccccc32)C(=O)c2ccccc21
- T/C (dose: 6.25 mg/kg/injection, schedule: Q01DX005 (ip), vehicle: saline with Tween-80): 108 % of control
- T/C (dose: 12.5 mg/kg/injection, schedule: Q01DX005 (ip), vehicle: saline with Tween-80): 104 % of control

SMILES: Cc1ccc(S(=O)(=O)N2C(=N)C(=S)N(C)C2=O)cc1
- T/C (dose: 60.0 mg/kg/injection, schedule: Q01DX005 (ip), vehicle: Klucel + Tween-80): 101 % of control
- T/C (dose: 120.0 mg/kg/injection, schedule: Q01DX005 (ip), vehicle: Klucel + Tween-80): 111 % of control
- T/C (dose: 240.0 mg/kg/injection, schedule: Q01DX005 (ip), vehicle: Klucel + Tween-80): 114 % of control

SMILES: Cc1c2ccncc2c(CO)c2c3ccccc3n(C)c12
- T/C (dose: 5.0 mg/kg/injection, schedule: Q01DX005 (ip), vehicle: saline): 109 % of control
- T/C (dose: 10.0 mg/kg/injection, schedule: Q01DX005 (ip), vehicle: saline): 97 % of control
- T/C (dose: 20.0 mg/kg/injection, schedule: Q01DX005 (ip), vehicle: saline): 97 % of control

SMILES: CC[C@@H]1C[C@@H]2CN3CCc4c([nH]c5ccc(OC)c(Cc6ccc(OC)c(OC)c6)c45)C(C(=O)OC)(C2)C13
- T/C (dose: 2.5 mg/kg/injection, schedule: Q01DX009 (ip), vehicle: Klucel (hydroxypropylcellulose) (HPC)): 88 % of control
- T/C (dose: 5.0 mg/kg/injection, schedule: Q01DX009 (ip), vehicle: Klucel (hydroxypropylcellulose) (HPC)): 103 % of control
- T/C (dose: 10.0 mg/kg/injection, schedule: Q01DX009 (ip), vehicle: Klucel (hydroxypropylcellulose) (HPC)): 92 % of control
- T/C (dose: 20.0 mg/kg/injection, schedule: Q01DX009 (ip), vehicle: Klucel (hydroxypropylcellulose) (HPC)): 95 % of control

SMILES: C/C(=N\NC(=O)c1ccccc1N)c1ccccc1O
- T/C (dose: 50.0 mg/kg/injection, schedule: Q01DX005 (ip), vehicle: Klucel (hydroxypropylcellulose) (HPC)): 100 % of control
- T/C (dose: 100.0 mg/kg/injection, schedule: Q01DX005 (ip), vehicle: Klucel (hydroxypropylcellulose) (HPC)): 98 % of control
- T/C (dose: 200.0 mg/kg/injection, schedule: Q01DX005 (ip), vehicle: Klucel (hydroxypropylcellulose) (HPC)): 100 % of control

SMILES: CCC1COC(CC)N1 (stereo unspecified)
- T/C [4]: 113 % of control and 95 % of control
- T/C [5]: 103 % of control

SMILES: O=c1oc2ccccc2c(O)c1C1=N/C(=N/N=C/c2ccc(Cl)cc2)SC1
- T/C [1]: 98 % of control
- T/C [2]: 100 % of control
- T/C [3]: 101 % of control and 87 % of control
- T/C (dose: 60.0 mg/kg/injection, schedule: Q02DX002 (ip), vehicle: Klucel (hydroxypropylcellulose) (HPC)): 97 % of control
- T/C (dose: 120.0 mg/kg/injection, schedule: Q02DX002 (ip), vehicle: Klucel (hydroxypropylcellulose) (HPC)): 89 % of control
- T/C (dose: 240.0 mg/kg/injection, schedule: Q02DX002 (ip), vehicle: Klucel (hydroxypropylcellulose) (HPC)): 93 % of control

SMILES: CCCCCCCN(CCCCCCC)CC(O)c1c(OC)c2cc(Cl)ccc2c2ccc(Cl)cc12 (stereo unspecified)
- T/C (dose: 10.0 mg/kg/injection, schedule: Q01DX009 (ip), vehicle: saline with Tween-80): 94 % of control
- T/C (dose: 20.0 mg/kg/injection, schedule: Q01DX009 (ip), vehicle: saline with Tween-80): 90 % of control
- T/C (dose: 40.0 mg/kg/injection, schedule: Q01DX009 (ip), vehicle: saline with Tween-80): 92 % of control

SMILES: COc1cc(N2C(=O)CSC2=S)cc(OC)c1OC
- T/C [6]: 100 % of control
- T/C (dose: 100.0 mg/kg/injection, schedule: Q01DX009 (ip), vehicle: Klucel (hydroxypropylcellulose) (HPC)): 89 % of control
- T/C (dose: 200.0 mg/kg/injection, schedule: Q01DX009 (ip), vehicle: Klucel (hydroxypropylcellulose) (HPC)): 101 % of control

SMILES: COC(/C=N/OC(=O)c1ccc([N+](=O)[O-])cc1)c1ccccc1 (stereo unspecified)
- T/C (dose: 25.0 mg/kg/injection, schedule: Q04DX003 (ip), vehicle: saline with Tween-80): 89 % of control and 92 % of control
- T/C (dose: 50.0 mg/kg/injection, schedule: Q04DX003 (ip), vehicle: saline with Tween-80): 92 % of control and 94 % of control

SMILES: CCOC(=O)Nc1cc(NCC(=O)c2ccc3ccccc3c2)c([N+](=O)[O-])c(N)n1
- T/C [3]: 92 % of control
- T/C (dose: 120.0 mg/kg/injection, schedule: Q01DX005 (ip), vehicle: Klucel (hydroxypropylcellulose) (HPC)): 91 % of control
- T/C (dose: 240.0 mg/kg/injection, schedule: Q01DX005 (ip), vehicle: Klucel (hydroxypropylcellulose) (HPC)): 98 % of control

SMILES: Cc1ccc(C)n1-n1nnnc1N
- T/C [4]: 101 % of control
- T/C [5]: 100 % of control

SMILES: Cc1c2c(c(C)c3ccccc13)C(O)C(O)c1ccccc1-2 (stereo unspecified)
- T/C (dose: 100.0 mg/kg/injection, schedule: Q01DX001 (ip), vehicle: Klucel (hydroxypropylcellulose) (HPC)): 91 % of control
- T/C (dose: 200.0 mg/kg/injection, schedule: Q01DX001 (ip), vehicle: Klucel (hydroxypropylcellulose) (HPC)): 91 % of control
- T/C (dose: 400.0 mg/kg/injection, schedule: Q01DX001 (ip), vehicle: Klucel (hydroxypropylcellulose) (HPC)): 99 % of control

SMILES: Cc1cn(C2CC(O)C(CI)O2)c(=O)[nH]c1=O (stereo unspecified)
- T/C [4]: 98 % of control
- T/C [5]: 104 % of control
- T/C (dose: 200.0 mg/kg/injection, schedule: Q01DX005 (ip), vehicle: saline with Tween-80): 98 % of control

SMILES: CC1CC(=O)NC(N)=N1 (stereo unspecified)
- T/C [7]: 98 % of control
- T/C [8]: 108 % of control
- T/C [9]: 104 % of control

SMILES: O=C1CSC(c2cccc(Cl)c2Cl)N1c1nncs1 (stereo unspecified)
- T/C (dose: 100.0 mg/kg/injection, schedule: Q04DX002 (ip), vehicle: saline with Tween-80): 112 % of control
- T/C (dose: 200.0 mg/kg/injection, schedule: Q04DX002 (ip), vehicle: saline with Tween-80): 94 % of control
- T/C (dose: 400.0 mg/kg/injection, schedule: Q04DX002 (ip), vehicle: saline with Tween-80): 97 % of control

SMILES: CC(O)C(N)C(=O)NCC(=O)NCC(=O)O (stereo not drawn) (H-[ξT]-Gly-Gly-OH)
- T/C [7]: 101 % of control
- T/C [8]: 101 % of control
- T/C [9]: 104 % of control

SMILES: Cc1c(O)c2c(c(O)c1Cc1ccc(CN)cc1)C(=O)c1ccccc1C2=O
- T/C (dose: 12.5 mg/kg/injection, schedule: Q04DX003 (ip), vehicle: water): 98 % of control
- T/C (dose: 25.0 mg/kg/injection, schedule: Q04DX003 (ip), vehicle: water): 90 % of control
- T/C (dose: 50.0 mg/kg/injection, schedule: Q04DX003 (ip), vehicle: water): 93 % of control
- T/C (dose: 100.0 mg/kg/injection, schedule: Q04DX003 (ip), vehicle: water): 103 % of control

SMILES: Cc1ccn2cc(CC(=O)O)nc2n1
- T/C (dose: 100.0 mg/kg/injection, schedule: Q04DX003 (ip), vehicle: saline): 101 % of control
- T/C (dose: 200.0 mg/kg/injection, schedule: Q04DX003 (ip), vehicle: saline): 106 % of control
- T/C (dose: 400.0 mg/kg/injection, schedule: Q04DX003 (ip), vehicle: saline): 105 % of control

SMILES: O=C(Nc1ccc(Cl)cc1)Nc1nnc2nc(C(C(=O)c3cccs3)c3nc4nnc(NC(=O)Nc5ccc(Cl)cc5)n4[nH]c3=O)c(=O)[nH]n12
- T/C [10]: 91 % of control
- T/C [11]: 94 % of control

SMILES: CN(C(=S)S(=O)(=O)C12CC3CC(CC(C3)C1)C2)c1ccccc1
- T/C (dose: 12.5 mg/kg/injection, schedule: Q01DX009 (ip), vehicle: Klucel (hydroxypropylcellulose) (HPC)): 118 % of control
- T/C [6]: 124 % of control

SMILES: CC(NCCCSc1ccccc1)C(O)c1ccc(O)cc1 (stereo unspecified)
- T/C (dose: 25.0 mg/kg/injection, schedule: Q01DX009 (ip), vehicle: saline with Tween-80): 94 % of control
- T/C [12]: 100 % of control

SMILES: CCCCc1[nH]nc(-c2n[nH]c(CCCC)c2C)c1C
- T/C [10]: 95 % of control
- T/C [11]: 100 % of control
- T/C (dose: 240.0 mg/kg/injection, schedule: Q01DX005 (ip), vehicle: saline with Tween-80): 108 % of control

SMILES: Cc1ccccc1N1C(=O)CC2(CCCC2)C1=O
- T/C [12]: 97 % of control
- T/C (dose: 100.0 mg/kg/injection, schedule: Q01DX009 (ip), vehicle: saline with Tween-80): 113 % of control
- T/C (dose: 200.0 mg/kg/injection, schedule: Q01DX009 (ip), vehicle: saline with Tween-80): 94 % of control

SMILES: CN1C2CCC1C(CCl)C(O)C2 (stereo unspecified)
- T/C (dose: 50.0 mg/kg/injection, schedule: Q01DX009 (ip), vehicle: saline): 92 % of control
- T/C (dose: 100.0 mg/kg/injection, schedule: Q01DX009 (ip), vehicle: saline): 88 % of control
- T/C (dose: 200.0 mg/kg/injection, schedule: Q01DX009 (ip), vehicle: saline): 88 % of control
